Read-outs that look alike come from different tables or passages of the source.
Tests used:
[1] = target: T1, D2 dopaminergic receptors (Rattus norvegicus, UniProt P61169); experiment: Affinity test, D2 dopaminergic receptors: (3H)-spiperone displacement in rat striatum membranes; design: species or system male Wistar rats; details: read-out: Inhibition, % (binding of 3H-spiperone)
T1 construct: The striatum is dissected rapidly and homogenized; from tissue; host or cells: striatum of male Wistar rats, membrane preparation
Experimental: Characterization by (^3 H) spiperone displacement test.
The brain of male Wistar rats (200-250 g) is removed. The striatum is dissected rapidly and homogenized into 20 ml iced buffer ([…], pH=7.4, 25° C.) by means of a Teflon homogenizer. The homogenate is centrifuged at 4° C. at 10000 G during 10 minutes, the concentrate is washed two times with iced buffer and recentrifuged. The final concentrate is suspended into iced buffer (50 nM/HCl, pH=7.4) containing […], […] EDTA. After rehomogenization, the suspension is adjusted to 1 mg proteine per ml.
The binding of (^3 H)-spiperone is evaluated onto the following mixture: 200 μl membrane preparation (0.1-0.2 mg proteine), 100 μl (10^-6 M) test substance and […] buffer for a final volume of 1 ml. Control tubes, which are taken as a reference of the nonspecific binding, contain also 1 μM (+) butaclamol. The samples (in threefold) are then incubated with 0.5 nM (^3 H)spiperone at 25° C. for 60 minutes. This step is stopped by a quick vacuum filtration of the suspension through a glass-fiber filter GF/C. The filter is rinsed three times with 5 ml iced buffer.

[2] = tested on: muscarinergic receptors; design: species or system CFY rat; details: 1.5 nM (3H) QNB, 25° C., pH 7.5, 60 minutes; non-specific binding with 10^-5 M atropin
[3] = Apomorphine Antagonism Test (in vivo), with locomotion and sedative effect; details: examples: "At 20 mg/kg" heads the paragraph
Source text: The following results are provided by way of example.

[4] = Catalepsy Test (extrapyramidal effects); format: in vivo; details: for dose at which catalepsy appears: catalepsy for doses above / cataleptic effect starting from; for cataleptic effect (in words): catalepsy test
Source text: See in particular GRAY W. D., OSTERBERG A. C., RAUH C. E., Arch. Int. Pharmacodyn. 134, 198, 1961 and COSTALL B., OLLEY J. E., Neuropharmacology 10, 297, 1971.
This test is representative for the extrapyramidal effects present in numerous neuroleptics (unwanted secondary effect). The compounds of the invention cause very little catalepsy and seem therefore to be free from this unwanted secondary effect. However, some products have shown a slight catalepsy: […]

[5] = test substance 100 μl (10^-6 M) in final volume 1 ml, 0.5 nM (3H)spiperone, 25° C., 60 min, vs 1 μM (+)butaclamol
[6] = scale from clozapine (20 mg/g) + to haloperidol (0.63 mg/kg) +++++

T1 sequence (P61169 whole entry): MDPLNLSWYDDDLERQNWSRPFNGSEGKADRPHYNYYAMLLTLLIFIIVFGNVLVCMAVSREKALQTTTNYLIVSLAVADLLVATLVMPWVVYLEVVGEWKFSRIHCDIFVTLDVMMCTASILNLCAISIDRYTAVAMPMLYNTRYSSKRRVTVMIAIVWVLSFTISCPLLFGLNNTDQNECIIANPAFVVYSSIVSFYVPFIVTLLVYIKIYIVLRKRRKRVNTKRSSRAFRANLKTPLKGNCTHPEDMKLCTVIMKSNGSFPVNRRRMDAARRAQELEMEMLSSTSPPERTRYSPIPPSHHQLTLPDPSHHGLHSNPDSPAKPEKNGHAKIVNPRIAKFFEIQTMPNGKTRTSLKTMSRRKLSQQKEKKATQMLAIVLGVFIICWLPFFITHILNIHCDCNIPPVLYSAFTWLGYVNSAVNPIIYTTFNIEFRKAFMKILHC

| SMILES | inhibition [1, 5] | Inhibition, % (binding of 3H QNB) [2] | Apomorphine antagonism, intensity of activity [3, 6] | also measured |
| --- | --- | --- | --- | --- |
| CN1CCN(C2=Nc3ccccc3Sc3ccc(Cl)cc32)CC1 [Clothiapine, reference compound] | 94.6% | 38.05% | – | – |
| CN1CCN(C2=Nc3cc(Cl)ccc3Nc3ccccc32)CC1 [Clozapine, reference compound] | – | – | + | dose at which catalepsy appears [4]: ≥ 20 mg/kg; cataleptic effect (in words) [4]: week cataleptic effect |
| CN1CCN(C2=Nc3ccccc3Nc3ccncc32)CC1 [Example 1, 11-(4-methylpiperazin-1-yl)-5H-pyrido(4,3-b)benzo-1,5-diazepine] | – | 4.48% | – | inhibition [1]: 56.2%; dose at which catalepsy appears [4]: above 40 mg/kg |
| CN1CCN(C2=Nc3cccnc3Sc3ccc(Cl)cc32)CC1.O=C(O)/C=C/C(=O)O [Example 3, 8-chloro-6-(4-methylpiperazin-1-yl)pyrido(2,3-b)benzo-1,4-thiazepine fumarate] | – | – | – | dose at which catalepsy appears [4]: above 40 mg/kg |
| CN1CCN(C2=Nc3ccccc3Oc3ncccc32)CC1.O=C(O)/C=C\C(=O)O [Example 4, 5-(4-methylpiperazin-1-yl)pyrido(2,3-b)benzo-1,5-oxazepine maleate] | – | – | – | dose at which catalepsy appears [4]: ≥ 20 mg/kg; cataleptic effect (in words) [4]: slight cataleptic effect |
| CN1CCN(C2=Nc3cc(Cl)ccc3Oc3ncccc32)CC1.O=C(O)/C=C/C(=O)O [Example 5, 8-chloro-5-(4-methylpiperazin-1-yl)pyrido(2,3-b)benzo-1,5-oxazepine fumarate] | – | – | + | – |
| CN1CCN(C2=Nc3cccnc3Oc3ccccc32)CC1.O=C(O)/C=C/C(=O)O [Example 7, 6-(4-methylpiperazin-1-yl)pyrido(2,3-b)benzo-1,4-oxazepine fumarate] | – | – | + | – |
| CN1CCN(C2=Nc3cccnc3Nc3ccc(Cl)cc32)CC1 [Example 10, 8-chloro-6-(4-methylpiperazin-1-yl)-11H-pyrido(2,3-b)benzo-1,4-diazepine] | 31.5% | 62.08% | – | – |
| Cc1ccc2c(c1)C(N1CCN(C)CC1)=Nc1cccnc1N2 [Example 11, 6-(4-methylpiperazin-1-yl)-8-methyl-11H-pyrido(2,3-b)benzo-1,4-diazepine] | 24.8% | 67.3% | – | – |
| CN1CCN(C2=Nc3cccnc3Nc3cc(Cl)ccc32)CC1 [Example 12, 9-chloro-6-(4-methylpiperazin-1-yl)-11H-pyrido(2,3-b)benzo-1,4-diazepine] | – | – | + | – |
| CN1CCN(C2=Nc3cccnc3Nc3ccc(F)cc32)CC1 [Example 13, 8-fluoro-6-(4-methylpiperazin-1-yl)-11H-pyrido(2,3-b)benzo-1,4-diazepine] | – | – | + | – |
| CN1CCN(C2=Nc3cccnc3N(C=O)c3ccccc32)CC1 [Example 17, 11-formyl-6-(4-methylpiperazin-1-yl)-11H-pyrido(2,3-b)benzo-1,4-diazepine] | 22.8% | 43.38% | – | – |
| CN1CCN(C2=Nc3cnccc3Sc3ccccc32)CC1 [Example 18, 10-(4-methylpiperazin-1-yl)pyrido(4,3-b)benzo-1,4-thiazepine] | 50.2% | 57.61% | – | – |
| CN1CCN(C2=Nc3ccccc3[Se]c3ccccc32)CC1 [Example 19] | – | 78.31% | – | inhibition [1]: 26.7% |
| O=C(CCCN1CCC(O)(c2ccc(Cl)cc2)CC1)c1ccc(F)cc1 [Haloperidol, reference compound] | – | – | – | Apomorphine antagonism, intensity of activity ([3]; scale from clozapine + to haloperidol (0.63 mg/kg) +++++): +++++ |

Reference: patent publication US5393752A, “Methylpiperazinoazepine compounds, preparation and use thereof” (Therabel Research S.A./N.V., priority 1994, dated 1995)
